Source: patent US10435399B2, “HDAC6 inhibitory heterocyclic compound” (TAKEDA PHARMACEUTICAL COMPANY LIMITED, priority 2017, dated 2019)

What follows are compounds tested against T1, HDAC6 enzyme (Homo sapiens, UniProt Q9UBN7) (assay: HDAC6 enzyme inhibitory activity (HDAC-Glo I/II Assay kit)). Conditions: 10 μM; wells without enzyme = 100% inhibition; read-out: HDAC6 inhibitory rate (%) (10 μM).
T1 construct: transducing full length HDAC6 gene into Sf-9 insect cells; GST; purchased SignalChem; host or cells: Sf-9 insect cells
T1 sequence (Q9UBN7 1-1215): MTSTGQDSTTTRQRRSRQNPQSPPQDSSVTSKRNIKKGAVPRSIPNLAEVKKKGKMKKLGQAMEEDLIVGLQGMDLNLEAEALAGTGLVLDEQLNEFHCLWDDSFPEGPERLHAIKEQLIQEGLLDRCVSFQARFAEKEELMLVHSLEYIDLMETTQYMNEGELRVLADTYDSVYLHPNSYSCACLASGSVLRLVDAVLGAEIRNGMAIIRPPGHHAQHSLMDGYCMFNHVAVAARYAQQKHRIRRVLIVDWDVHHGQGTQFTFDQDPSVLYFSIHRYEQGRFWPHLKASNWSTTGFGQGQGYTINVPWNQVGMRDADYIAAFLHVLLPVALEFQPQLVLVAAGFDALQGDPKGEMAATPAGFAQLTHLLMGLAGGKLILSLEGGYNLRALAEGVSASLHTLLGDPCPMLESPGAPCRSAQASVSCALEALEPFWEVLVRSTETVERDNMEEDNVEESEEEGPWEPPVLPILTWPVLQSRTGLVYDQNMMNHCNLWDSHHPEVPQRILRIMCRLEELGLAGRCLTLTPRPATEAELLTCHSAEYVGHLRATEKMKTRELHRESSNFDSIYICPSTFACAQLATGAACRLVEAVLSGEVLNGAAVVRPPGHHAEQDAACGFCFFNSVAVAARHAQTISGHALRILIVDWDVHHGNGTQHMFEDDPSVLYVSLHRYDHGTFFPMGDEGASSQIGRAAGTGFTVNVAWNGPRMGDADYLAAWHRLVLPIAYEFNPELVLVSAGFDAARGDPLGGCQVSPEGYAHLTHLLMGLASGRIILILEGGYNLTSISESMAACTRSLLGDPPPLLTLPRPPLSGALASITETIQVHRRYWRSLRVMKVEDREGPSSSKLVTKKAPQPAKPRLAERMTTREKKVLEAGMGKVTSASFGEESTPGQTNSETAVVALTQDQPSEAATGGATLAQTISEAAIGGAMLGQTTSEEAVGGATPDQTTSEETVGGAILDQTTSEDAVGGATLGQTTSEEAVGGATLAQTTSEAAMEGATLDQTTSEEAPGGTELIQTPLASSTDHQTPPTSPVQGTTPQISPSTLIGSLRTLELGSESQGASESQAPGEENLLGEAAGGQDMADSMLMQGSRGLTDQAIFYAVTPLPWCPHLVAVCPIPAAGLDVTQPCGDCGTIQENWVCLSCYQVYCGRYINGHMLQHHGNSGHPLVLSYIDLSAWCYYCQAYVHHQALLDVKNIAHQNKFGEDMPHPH
Format: biochemical
Outline: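 Luminescence read-out after 20 min reaction with HDAC-Glo substrate-developer, following 60 min room-temperature preincubation of compound with Sf-9-expressed, GST-purified full-length enzyme. Inhibition is relative to no-enzyme wells set as 100%.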

Question: How did the inhibition at 10 µM turn out when `CC(=O)N1CC[C@@H](N2Cc3ccc(-c4nnc(C(F)F)o4)cc3C2=O)[C@H](c2ccc(F)cc2)C1` [Example 509, 2-((3R,4R)-1-acetyl-3-(4-fluorophenyl)piperidin-4-yl)-6-(5-(difluoro-methyl)-1,3,4-oxadiazol-2-yl) isoindolin-1-one] was run?
Answer: Its inhibition at 10 µM is 99%.

Question: For `O=C(N[C@H]1[C@H](N2Cc3ccc(-c4nnc(C(F)F)o4)cc3C2=O)CCCC1(F)F)OCc1ccccc1` [Example 510, benzyl ((1S,6R)-6-(6-(5-(difluoromethyl)-1,3,4-oxadiazol-2-yl)-1-oxo-1,3-dihydro-2H-isoindol-2-yl)-2,2-difluorocyclohexyl)carbamate], which inhibition at 10 µM is on record?
Answer: The inhibition at 10 µM was 100%.

Question: How did the inhibition at 10 µM turn out when `N[C@H]1[C@H](N2Cc3ccc(-c4nnc(C(F)F)o4)cc3C2=O)CCCC1(F)F` [Example 511, 2-((1R,2S)-2-amino-3,3-difluorocyclohexyl)-6-(5-(difluoromethyl)-1,3,4-oxadiazol-2-yl)isoindolin-1-one] was run?
Answer: The inhibition at 10 µM was 95%.

Question: How did the inhibition at 10 µM turn out when `O=C1c2cc(-c3nnc(C(F)F)o3)ccc2CN1[C@@H]1CCCC(F)(F)[C@H]1NC(=O)C(F)(F)C(F)(F)F` [Example 513, N-((1S,6R)-6-(6-(5-(difluoromethyl)-1,3,4-oxadiazol-2-yl)-1-oxo-1,3-dihydro-2H-isoindol-2-yl)-2,2-difluorocyclohexyl)-2,2,3,3,3-pentafluoropropanamide] was run?
Answer: Its inhibition at 10 µM is 99%.

Question: With `O=C1c2cc(-c3nnc(C(F)F)o3)ccc2CN1[C@@H]1CCC(F)(F)C[C@@H]1NC(=O)C(F)(F)C(F)(F)F` [Example 515, N-((1S,2R)-2-(6-(5-(difluoro-methyl)-1,3,4-oxadiazol-2-yl)-1-oxo-1,3-dihydro-2H-isoindol-2-yl)-5,5-difluoro-cyclohexyl)-2,2,3,3,3-pentafluoro-propanamide] as the compound, how does the inhibition at 10 µM read?
Answer: The inhibition at 10 µM was 99%.

Question: `CC(F)(F)C(=O)N[C@H]1CC(F)(F)CC[C@H]1N1Cc2ccc(-c3nnc(C(F)F)o3)cc2C1=O` [Example 516, N-((1S,2R)-2-(6-(5-(difluoromethyl)-1,3,4-oxadiazol-2-yl)-1-oxo-1,3-dihydro-2H-isoindol-2-yl)-5,5-difluorocyclohexyl)-2,2-difluoropropanamide] was tested. Which inhibition at 10 µM did it give?
Answer: The inhibition at 10 µM was 100%.

Question: `Cn1cc(C2=CCN(C(=O)OC(C)(C)C)CC2)c(N2Cc3ccc(-c4nnc(C(F)F)o4)cc3C2=O)n1` [Example 518, tert-butyl 4-(3-(6-(5-(difluoro-methyl)-1,3,4-oxadiazol-2-yl)-1-oxo-1,3-dihydro-2H-isoindol-2-yl)-1-methyl-1H-pyrazol-4-yl)-3,6-dihydro-pyridine-1(2H)-carboxylate] was tested. Which inhibition at 10 µM did it give?
Answer: Its inhibition at 10 µM is 99%.

Question: With `Cn1cc(C2=CCC(NC(=O)OC(C)(C)C)CC2)c(N2Cc3ccc(-c4nnc(C(F)F)o4)cc3C2=O)n1` (stereo not shown) [Example 519, tert-butyl (4-(3-(6-(5-(difluoromethyl)-1,3,4-oxadiazol-2-yl)-1-oxo-1,3-dihydro-2H-isoindol-2-yl)-1-methyl-1H-pyrazol-4-yl)cyclohex-3-en-1-yl)carbamate] as the compound, how does the inhibition at 10 µM read?
Answer: The inhibition at 10 µM was 99%.

Question: With `CC(C)(C)OC(=O)NC1CC=C(c2cc(F)ccc2N2Cc3ccc(-c4nnc(C(F)F)o4)cc3C2=O)CC1` (stereo not shown) [Example 520, tert-butyl (4-(2-(6-(5-(difluoromethyl)-1,3,4-oxadiazol-2-yl)-1-oxo-1,3-dihydro-2H-isoindol-2-yl)-5-fluorophenyl)cyclohex-3-en-1-yl)carbamate] as the compound, how does the inhibition at 10 µM read?
Answer: Its inhibition at 10 µM is 99%.

Question: `O=C1c2cc(-c3nnc(C(F)F)o3)ccc2CN1[C@@H]1CCCC[C@H]1Nc1ccccn1` [Example 521, 6-(5-(difluoromethyl)-1,3,4-oxadiazol-2-yl)-2-((1R,2R)-2-(pyridin-2-ylamino)cyclohexyl)isoindolin-1-one] was tested. Which inhibition at 10 µM did it give?
Answer: The inhibition at 10 µM was 99%.

Question: `Cn1cc(C2CCN(C(=O)OC(C)(C)C)CC2)c(N2Cc3ccc(-c4nnc(C(F)F)o4)cc3C2=O)n1` [Example 522, tert-butyl 4-(3-(6-(5-(difluoromethyl)-1,3,4-oxadiazol-2-yl)-1-oxo-1,3-dihydro-2H-isoindol-2-yl)-1-methyl-1H-pyrazol-4-yl)piperidine-1-carboxylate] was tested. Which inhibition at 10 µM did it give?
Answer: Its inhibition at 10 µM is 99%.

Question: How did the inhibition at 10 µM turn out when `Cn1cc(C2CCC(NC(=O)OC(C)(C)C)CC2)c(N2Cc3ccc(-c4nnc(C(F)F)o4)cc3C2=O)n1` (stereo not shown) [Example 523, tert-butyl (4-(3-(6-(5-(difluoromethyl)-1,3,4-oxadiazol-2-yl)-1-oxo-1,3-dihydro-2H-isoindol-2-yl)-1-methyl-1H-pyrazol-4-yl)cyclohexyl)carbamate] was run?
Answer: The inhibition at 10 µM was 99%.

Question: For `CC(C)(C)OC(=O)N1CCC(c2cc(F)ccc2N2Cc3ccc(-c4nnc(C(F)F)o4)cc3C2=O)CC1` [Example 524, tert-butyl 4-(2-(6-(5-(difluoromethyl)-1,3,4-oxadiazol-2-yl)-1-oxo-1,3-dihydro-2H-isoindol-2-yl)-5-flluorophenyl)piperidine-1-carboxylate], which inhibition at 10 µM is on record?
Answer: The inhibition at 10 µM was 99%.

Question: For `CC(C)(C)OC(=O)NC1CCC(c2cc(F)ccc2N2Cc3ccc(-c4nnc(C(F)F)o4)cc3C2=O)CC1` (stereo not shown) [Example 525, tert-butyl (4-(2-(6-(5-(difluoromethyl)-1,3,4-oxadiazol-2-yl)-1-oxo-1,3-dihydro-2H-isoindol-2-yl)-5-fluorophenyl)cyclohexyl)carbamate], which inhibition at 10 µM is on record?
Answer: Its inhibition at 10 µM is 100%.

Question: How did the inhibition at 10 µM turn out when `O=C1c2cc(-c3nnc(C(F)F)o3)ccc2CN1N1CCC(F)(F)CC1c1ccccc1` (stereo not shown) [Example 530, 6-(5-(difluoromethyl)-1,3,4-oxadiazol-2-yl)-2-(4,4-difluoro-2-phenylpiperidin-1-yl)isoindolin-1-one] was run?
Answer: The inhibition at 10 µM was 100%.

Question: `Cn1cc(C2CCC(NC(=O)C(F)(F)C(F)(F)F)CC2)c(N2Cc3ccc(-c4nnc(C(F)F)o4)cc3C2=O)n1` (stereo not shown) [Example 532, N-(4-(3-(6-(5-(difluoromethyl)-1,3,4-oxadiazol-2-yl)-1-oxo-1,3-dihydro-2H-isoindol-2-yl)-1-methyl-1H-pyrazol-4-yl)cyclohexyl)-2,2,3,3,3-pentafluoropropanamide] was tested. Which inhibition at 10 µM did it give?
Answer: The inhibition at 10 µM was 99%.

Question: With `O=C1c2cc(-c3nnc(C(F)F)o3)ccc2CN1c1ccc(F)cc1C1CCN(C(=O)C(F)(F)C(F)(F)F)CC1` [Example 533, 6-(5-(difluoromethyl)-1,3,4-oxadiazol-2-yl)-2-(4-fluoro-2-(1-(2,2,3,3,3-pentafluoropropanoyl)piperidin-4-yl)phenyl)isoindolin-1-one] as the compound, how does the inhibition at 10 µM read?
Answer: Its inhibition at 10 µM is 98%.

Question: How did the inhibition at 10 µM turn out when `O=C1c2cc(-c3nnc(C(F)F)o3)ccc2CN1c1ccc(F)cc1C1CCC(NC(=O)C(F)(F)C(F)(F)F)CC1` (stereo not shown) [Example 534, N-(4-(2-(6-(5-(difluoromethyl)-1,3,4-oxadiazol-2-yl)-1-oxo-1,3-dihydro-2H-isoindol-2-yl)-5-fluorophenyl)cyclohexyl)-2,2,3,3,3-pentafluoropropanamide] was run?
Answer: The inhibition at 10 µM was 100%.

Question: For `O=C1c2cc(-c3nnc(C(F)F)o3)ccc2CN1[C@@H]1CCCC[C@H]1n1nnc2ccccc21` [Example 536, 2-((1R,2R)-2-(1H-benzotriazol-1-yl)cyclohexyl)-6-(5-(difluoromethyl)-1,3,4-oxadiazol-2-yl)isoindolin-1-one], which inhibition at 10 µM is on record?
Answer: The inhibition at 10 µM was 100%.

Question: Which inhibition at 10 µM does the source give for `O=C1c2cc(-c3nnc(C(F)F)o3)cnc2CN1[C@@H]1CCCC[C@H]1n1nnc2ccccc21` [Example 537, 6-((1R,2R)-2-(1H-benzotriazol-1-yl)cyclohexyl)-3-(5-(difluoromethyl)-1,3,4-oxadiazol-2-yl)-6,7-dihydro-5H-pyrrolo[3,4-b]pyridin-5-one] here?
Answer: The inhibition at 10 µM was 100%.

Question: With `O=C1c2cc(-c3nnc(C(F)F)o3)ccc2CN1[C@@H]1CCCC[C@H]1c1nnc2ccccn12` [Example 547, 6-(5-(difluoromethyl)-1,3,4-oxadiazol-2-yl)-2-((1R,2R)-2-([1,2,4]triazolo[4,3-a]pyridin-3-yl)cyclohexyl)isoindolin-1-one] as the compound, how does the inhibition at 10 µM read?
Answer: Its inhibition at 10 µM is 100%.

Same assay, conditions: read-out: HDAC6 inhibitory rate (%) (10 μM)

Question: With `O=C1c2cc(-c3nnc(C(F)F)o3)ccc2CN1[C@@H]1CCCC[C@H]1N1CC(F)(F)C(F)(F)C(F)(F)C1` [Example 531, 6-(5-(difluoromethyl)-1,3,4-oxadiazol-2-yl)-2-((1R,2R)-2-(3,3,4,4,5,5-hexafluoropiperidin-1-yl)cyclohexyl)isoindolin-1-one] as the compound, how does the inhibition at 10 µM read?
Answer: Its inhibition at 10 µM is 100%.
